biological target: T1, PERK (Homo sapiens, UniProt Q9NZJ5); test: PERK biochemical LanthaScreen TR-FRET assay (GFP-eIF2a phosphorylation); details: cell-free TR-FRET, GFP-eIF2a substrate; read-out: PERK IC50
T1 sequence (Q9NZJ5 30-1116): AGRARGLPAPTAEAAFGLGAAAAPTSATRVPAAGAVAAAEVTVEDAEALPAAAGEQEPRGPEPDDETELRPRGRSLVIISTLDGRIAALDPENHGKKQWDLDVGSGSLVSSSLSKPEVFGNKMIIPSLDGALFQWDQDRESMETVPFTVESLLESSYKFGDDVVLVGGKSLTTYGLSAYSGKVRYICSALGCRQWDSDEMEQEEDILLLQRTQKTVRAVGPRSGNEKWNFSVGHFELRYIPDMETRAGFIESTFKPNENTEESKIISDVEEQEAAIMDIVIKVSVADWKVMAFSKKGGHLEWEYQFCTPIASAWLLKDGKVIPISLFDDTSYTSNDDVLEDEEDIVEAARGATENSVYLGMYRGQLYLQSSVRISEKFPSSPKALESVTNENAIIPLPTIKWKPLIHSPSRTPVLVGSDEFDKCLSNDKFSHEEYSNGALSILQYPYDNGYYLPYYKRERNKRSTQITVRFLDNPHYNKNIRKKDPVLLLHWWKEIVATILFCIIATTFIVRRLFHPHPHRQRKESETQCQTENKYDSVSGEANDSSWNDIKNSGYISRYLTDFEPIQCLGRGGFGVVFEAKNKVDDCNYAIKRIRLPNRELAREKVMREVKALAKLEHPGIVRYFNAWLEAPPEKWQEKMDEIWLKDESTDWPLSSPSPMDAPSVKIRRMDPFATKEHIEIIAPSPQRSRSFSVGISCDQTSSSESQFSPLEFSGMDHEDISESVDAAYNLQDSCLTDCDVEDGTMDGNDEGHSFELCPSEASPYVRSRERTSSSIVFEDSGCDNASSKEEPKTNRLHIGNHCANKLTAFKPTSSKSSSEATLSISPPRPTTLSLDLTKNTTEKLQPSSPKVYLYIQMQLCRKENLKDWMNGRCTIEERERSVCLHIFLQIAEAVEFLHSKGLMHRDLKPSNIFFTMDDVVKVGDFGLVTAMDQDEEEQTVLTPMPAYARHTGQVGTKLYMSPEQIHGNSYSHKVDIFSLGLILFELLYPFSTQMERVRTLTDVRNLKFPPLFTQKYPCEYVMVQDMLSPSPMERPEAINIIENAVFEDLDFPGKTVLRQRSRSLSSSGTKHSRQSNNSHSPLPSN
Method: Methods used to evaluate biochemical PERK activity are described and published elsewhere. In brief, biochemical PERK activity is evaluated using a LanthaScreenTM ([…]) TR-FRET assay to detect phosphorylation of a GFP-tagged eIF2a substrate (ThermoFisher). Excitation at […] of a terbium chelate donor fluorophore in an eIF2a antibody results in energy transfer to GFP acceptor fluorophore upon eIF2a phosphorylation by PERK. Reaction buffer was composed of 50 mM HEPES (pH 7.4), 10 mM MgCl2, 1 mM EGTA and 0.01% (v/v) BrijTM-35. Reactions were initiated by the addition of substrate and ATP, followed by incubation for 1 h at RT prior to addition of EDTA and the anti-peIF2a antibody. FRET was measured by an EnVision Plate Reader (PerkinElmer). Data were plotted as percent inhibition along a 10-point 3-fold dilution series of inhibitors. IC50 values were calculated using 4-parameter logistical fitting in XLFit.
(§1) The PERK activity of analog I was evaluated using cell-free biochemical assays. In these assays, PERK phosphorylation of eIF2a was assessed using a FRET-based labelled protein assay. Compounds were then evaluated for cellular activity by quantifying inhibition of eIF2a phosphorylation in HEK293 cells treated with the ER inducer tunicamycin [7].

**Q.** Which IC50 does the source give for `COc1cc(NC(=O)[C@H](O)c2cccc(F)c2)ccc1-c1cn(C)c2nc(C)nc(N)c12` [Compound 60] here?
**A.** 236 nM

**Q.** Which IC50 does the source give for `Cc1nc(N)c2c(-c3ccc(NC(=O)[C@H](O)c4cccc(F)c4)cc3OC(F)(F)F)cn(C)c2n1` [Compound 61] here?
**A.** 23 nM

**Q.** `Cc1nc(N)c2c(-c3ccc(NC(=O)[C@H](O)c4cccc(F)c4)cc3)cn(C)c2n1` [Compound 62] was tested. Which IC50 did it give?
**A.** 2 nM

**Q.** `Cc1nc(N)c2c(-c3ccc(NC(=O)[C@H](O)c4cccc(C(F)(F)F)c4)cc3)cn(C)c2n1` [Compound 63] was tested. Which IC50 did it give?
**A.** 2.8 nM

**Q.** `Cc1nc(N)c2c(-c3ccc(NC(=O)[C@H](O)c4cccc(Br)c4)cc3)cn(C)c2n1` [Compound 64] was tested. Which IC50 did it give?
**A.** 1.5 nM

**Q.** How did the IC50 turn out when `Cc1nc(N)c2c(-c3c(C)cc(NC(=O)C(O)c4cccc(F)c4)cc3F)cn(C)c2n1` (centres unmarked) [Compound 67] was run?
**A.** 22 nM

**Q.** How did the IC50 turn out when `Cc1nc(N)c2c(-c3c(C)cc(NC(=O)C(O)c4cccc(F)c4)cc3C)cn(C)c2n1` (centres unmarked) [Compound 68] was run?
**A.** 13 nM

**Q.** With `Cc1nc(N)c2c(-c3ccc(NC(=O)[C@H](O)c4cccc(F)c4)c(F)c3)cn(C)c2n1` [Compound 69] as the compound, how does the IC50 read?
**A.** 1 nM

**Q.** How did the IC50 turn out when `Cc1nc(N)c2c(-c3cc(F)c(NC(=O)C(O)c4cccc(F)c4)cc3F)cn(C)c2n1` (centres unmarked) [Compound 71] was run?
**A.** 1 nM

**Q.** How did the IC50 turn out when `Cc1nc(N)c2c(-c3ccc(NC(=O)[C@H](O)c4cccc(F)c4)nc3C)cn(C)c2n1` [Compound 72] was run?
**A.** 17 nM

**Q.** How did the IC50 turn out when `Cc1nc(N)c2c(-c3ccc(NC(=O)[C@H](O)c4cccc(C(F)(F)F)c4)nc3C)cn(C)c2n1` [Compound 73] was run?
**A.** 13 nM

**Q.** Which IC50 does the source give for `Cc1nc(N)c2c(-c3cnc(NC(=O)[C@H](O)c4cccc(F)c4)cc3C)cn(C)c2n1` [Compound 74] here?
**A.** 8.3 nM

**Q.** How did the IC50 turn out when `Cc1nc(N)c2c(-c3cnc(NC(=O)[C@H](O)c4cccc(C(F)(F)F)c4)cc3C)cn(C)c2n1` [Compound 75] was run?
**A.** 6.8 nM

**Q.** How did the IC50 turn out when `Cc1nc(N)c2c(-c3cnc(NC(=O)[C@H](O)c4cccc(F)c4)nc3C)cn(C)c2n1` [Compound 76] was run?
**A.** 647 nM

tested on: p-eIF2α; test: Cellular PERK inhibition: p-eIF2a TR-FRET in tunicamycin-treated HEK293-EGFP-eIF2a cells; type: cell-based; details: Homo sapiens; HEK293 cells, tunicamycin-induced ER stress; read-out: p-eIF2α IC50
Method: Methods used to evaluate in vitro cellular PERK inhibition are described and published elsewhere. In brief, stableHEK293 cells were created using lentiviral particles harboring a GFP-eIF2a expression vector. Transfectants were selected by puromycin and enriched using fluorescent cell sorting based on GFP expression. HEK293-EGFP-eIF2a cells were plated at 5000 cells/well in 384-well assay plates and incubated overnight. The following day, pyrrolopyrimidine analogs were added to wells using an Echo acoustic dispenser and incubated for 30 min. ER stress was induced by the addition of tunicamycin to the wells at […] for 2 h. Cells were lysed and peIF2a was evaluated using a TR-FRET system, as described above.
as §1

**Q.** Which IC50 does the source give for `COc1cc(NC(=O)[C@H](O)c2cccc(F)c2)ccc1-c1cn(C)c2nc(C)nc(N)c12` [Compound 60] here?
**A.** 1850 nM

**Q.** With `Cc1nc(N)c2c(-c3ccc(NC(=O)[C@H](O)c4cccc(F)c4)cc3OC(F)(F)F)cn(C)c2n1` [Compound 61] as the compound, how does the IC50 read?
**A.** 435 nM

**Q.** For `Cc1nc(N)c2c(-c3ccc(NC(=O)[C@H](O)c4cccc(F)c4)cc3)cn(C)c2n1` [Compound 62], which IC50 is on record?
**A.** 126 nM

**Q.** With `Cc1nc(N)c2c(-c3ccc(NC(=O)[C@H](O)c4cccc(C(F)(F)F)c4)cc3)cn(C)c2n1` [Compound 63] as the compound, how does the IC50 read?
**A.** 13 nM

**Q.** How did the IC50 turn out when `Cc1nc(N)c2c(-c3ccc(NC(=O)[C@H](O)c4cccc(Br)c4)cc3)cn(C)c2n1` [Compound 64] was run?
**A.** 14 nM

**Q.** How did the IC50 turn out when `Cc1nc(N)c2c(-c3c(C)cc(NC(=O)C(O)c4cccc(F)c4)cc3F)cn(C)c2n1` (centres unmarked) [Compound 67] was run?
**A.** 78 nM

**Q.** For `Cc1nc(N)c2c(-c3c(C)cc(NC(=O)C(O)c4cccc(F)c4)cc3C)cn(C)c2n1` (centres unmarked) [Compound 68], which IC50 is on record?
**A.** 82 nM

**Q.** `Cc1nc(N)c2c(-c3ccc(NC(=O)[C@H](O)c4cccc(F)c4)c(F)c3)cn(C)c2n1` [Compound 69] was tested. Which IC50 did it give?
**A.** 26 nM

**Q.** Which IC50 does the source give for `Cc1nc(N)c2c(-c3cc(F)c(NC(=O)C(O)c4cccc(F)c4)cc3F)cn(C)c2n1` (centres unmarked) [Compound 71] here?
**A.** 34 nM

**Q.** How did the IC50 turn out when `Cc1nc(N)c2c(-c3ccc(NC(=O)[C@H](O)c4cccc(F)c4)nc3C)cn(C)c2n1` [Compound 72] was run?
**A.** 105 nM

**Q.** How did the IC50 turn out when `Cc1nc(N)c2c(-c3ccc(NC(=O)[C@H](O)c4cccc(C(F)(F)F)c4)nc3C)cn(C)c2n1` [Compound 73] was run?
**A.** 51 nM

**Q.** `Cc1nc(N)c2c(-c3cnc(NC(=O)[C@H](O)c4cccc(F)c4)cc3C)cn(C)c2n1` [Compound 74] was tested. Which IC50 did it give?
**A.** 146 nM

**Q.** `Cc1nc(N)c2c(-c3cnc(NC(=O)[C@H](O)c4cccc(C(F)(F)F)c4)cc3C)cn(C)c2n1` [Compound 75] was tested. Which IC50 did it give?
**A.** 95 nM

**Q.** With `Cc1nc(N)c2c(-c3cnc(NC(=O)[C@H](O)c4cccc(F)c4)nc3C)cn(C)c2n1` [Compound 76] as the compound, how does the IC50 read?
**A.** > 10000 nM

tested on: Kasumi-1 (FLT3wt); test: Cell viability assay, Kasumi-1; type: cell-based; details: Homo sapiens

**Q.** With `CC1(COc2ccc3c(c2)ncn3-c2ccc3cccc(N4CCC(N)CC4)c3n2)COC1` [Crenolanib] as the compound, how does the IC50 read?
**A.** 80 nM

**Q.** How did the IC50 turn out when `CCc1nc(C(N)=O)c(Nc2ccc(N3CCC(N4CCN(C)CC4)CC3)c(OC)c2)nc1NC1CCOCC1` [Gilteritinib] was run?
**A.** 478 nM

tested on: MOLM-13 (FLT3-ITD); test: Cell viability assay, MOLM-13; type: cell-based; details: Homo sapiens

**Q.** `CC1(COc2ccc3c(c2)ncn3-c2ccc3cccc(N4CCC(N)CC4)c3n2)COC1` [Crenolanib] was tested. Which IC50 did it give?
**A.** 3 nM

**Q.** For `CCc1nc(C(N)=O)c(Nc2ccc(N3CCC(N4CCN(C)CC4)CC3)c(OC)c2)nc1NC1CCOCC1` [Gilteritinib], which IC50 is on record?
**A.** 14 nM
